From patent US5101059A, “Amino acid protecting groups” (Research Corporation Technologies, Inc., priority 1989, dated 1992)

Columns and labels:
Type in all cases: physicochemical
[1] = Stability of difluorenyl derivatives in trifluoroacetic acid; conditions: TFA 500 eq.
Method: C. Stability of FM-Fmoc-analine in Trifluoroacetic Acid: To a solution of 51.3 mg of FM-Fmoc-analine in 6 mL of CHCl3 was added 4 mL (500 eq.) of trifluoroacetic acid. The mixture was stirred at room temperature and monitored by TLC with an eluant consisting of Skelly B--ether (2:1). No change was noted after two days. The mixture was diluted with 10 mL of chloroform, and washed with H2 O (2×15 mL) and sat'd NaHCO3 (2×15 mL). […] 241°-243° C., the ^1 H NMR and IR spectra of which matched that of an authentic sample.
D. Stability of Bis(9-fluorenyl)methyl Carbanilate Towards Trifluoroacetic Acid: To a solution of 100 mg of α-F-Fmoc-analine in 12 mL of chloroform was added 8 mL (500 eq.) of trifluoroacetic acid. The mixture was stirred at room temperature and monitored by TLC with an eluant consisting of Skelly B--ether (2:1). No change was noted after 24 hours. The mixture was washed with water (2×10 mL), sat'd NaHCO3 (3×10 mL), and water (10 mL). […] 223°-226° C. (dec.), the ^1 H NMR and IR spectra of which matched that of an authentic sample.

[2] = Piperidine deblocking of bis(9-fluorenyl)methyl carbanilate; conditions: piperidine 48.5 eq., anhydrous ether, room temperature
Method: B. Piperidine Deblocking of Bis(9-fluorenyl)methyl Carbanilate: To a suspension of 20 mg (0.042 mmol) of αF-Fmoc-analine in 0.2 mL of anhydrous ether was added 0.2 mL (2.02 mmol, 48.5 eq.) of piperidine. The mixture was stirred at room temperature and monitored by TLC with an eluant consisting of Skelly B--CH2 Cl2 (1:1). […] No attempt was made to isolate the individual component of the final reaction mixture.

[3] = Stability of substituted Fmoc-PCA in acetic acid; conditions: glacial acetic acid 10 eq., CH2Cl2, room temperature, 48 hours
Method: 2. […] The mixture was stirred at room temperature for 48 hours. […] The mixture was washed with half sat'd NaHCO3 (2×10 mL) and water (10 mL). […] 161°-163° C., the IR and ^1 H NMR spectra of which matched that of an authentic sample.
3. Stability of 9-Trimethylsilyl-9-[…] p-Chlorocarbanilate in Acetic Acid: To a solution of 0.37 g of TMS-Fmoc-PCA in 10 mL of CH2 Cl2 was added 0.5 mL (10 eq.) of glacial acetic acid. The mixture was stirred at room temperature. […] The mixture was washed with half sat'd NaHCO3 (2×10 mL) and H2 O (10 mL). […] 124°-126° C., the ^1 H NMR and IR spectra of which matched that of an authentic sample.

[4] = Protolysis of BTS-Fmoc-PCA in trifluoroacetic acid; conditions: TFA 10.7 eq., CH2Cl2, room temperature, 12 hours
Method: 4. Protolysis of 2,7-Bis(trimethylsilyl)-9-fluoroenylmethyl p-Chlorocarbanilate in Trifluoroacetic Acid: To a solution of 0.3 g of BTS-Fmoc-PCA in 8 mL of CH2 Cl2 was added dropwise a solution of 0.5 mL (10.7 eq.) of trifluoroacetic acid in 3.0 mL of methylene chloride over a period of 10 minutes. The mixture was stirred at room temperature for 12 hours, washed with water (2×10 mL), and neutralized with sat'd NaHCO3 (2×10 mL). […] Recrystallization from EtOAc--Skelly B (2:1) gave 0.16 g (75.3%) of the pure urethane as colorless needles, m.p. 184°-185° C., identified by mixture melting point, and IR and NMR spectral comparisons with an authentic sample.

[5] = Base deblocking of substituted urethanes (U-PCA) by various amines; conditions: dichloromethane, room temperature
From the text: 1. General Procedure for Studying the Base Deblocking of the Urethanes Fmoc-PCA, BTS-Fmoc-PCA, DT-Fmoc-PCA, and TMS-Fmoc-PCA: A mixture of urethane (0.05 mmol) in a solution prepared from an equal volume of base (2.5 mmol, 50 eq.) and dichloromethane was stirred at room temperature. The course of the reaction was monitored by TLC with an eluant consisting of Skelly B--ether (3:1).

[6] = HPLC monitoring of the deblocking of Nε-(9-xanthenylmethoxycarbonyl)-L-lysine by TBD; conditions: TBD 20 eq., pyridine and DMF, room temperature
Method: B. HPLC Monitoring of the Deblocking of N^ε -(9-Xanthenylmethoxycarbonyl)-L-lysine by TBD: A mixture of […] of H-Lys(Xmoc)-OH and 150 mg (20 eq.) of 1,5,9-triazabicyclo[4,4,0]dec-5-ene (TBD) in 0.3 mL of pyridine and 0.3 mL of DMF was stirred at room temperature. A 20 μL portion of the mixture was neutralized with a solution of 0.3 mL of 5% HCl and 0.3 mL of methanol, filtered, and injected for HPLC analysis which was carried out on a Waters Radial Pak 10-μm C18 reverse phase column (0.8×10 cm) under the following conditions:
Mobile phase: 65% methanol and 35% TFA (0.1% in water)

[7] = Stability of FM-Fmoc-aniline towards catalytic hydrogenolysis; conditions: 5% Pd/C, 45 psi hydrogen, 24 hours
Method: E. Stability of FM-Fmoc-aniline Towards Catalytic Hydrogenolysis: To a mixture of 100 mg of FM-Fmoc-aniline and 63.9 mg of Fmoc-aniline in 30 mL of freshly distilled THF and 15 mL of 100% EtOH was added 30 mg of 5% palladium on charcoal. The mixture was shaken under hydrogen at a pressure of 45 psi in a Parr apparatus for 24 hours. […] Recrystallization of the latter from ethyl acetate gave 89.1 mg (89.1%) of the pure FM-Fmoc-anilineas white crystals, m.p. 243°-244° C. the ^1 H NMR and IR spectra of which matched that of an authentic sample.

[8] = Stability of xanthenylmethyl and dihydroanthracenylmethyl derivatives in trifluoroacetic acid; conditions: TFA 40 eq., deuterated chloroform, room temperature, 3 days
Method: 3. Stability of Xanthenylmethyl p-Chlorocarbanilate in Trifluoroacetic Acid: To a solution of 35.61 mg of Xmoc-PCA in 0.2 mL of deuterated chloroform was added 0.3 mL (40 eq.) of trifluoroacetic acid. The mixture was transferred to an NMR tube and allowed to stand at room temperature. The reaction was monitored by NMR spectroscopy (Varian A-60A, 60 MHz) and TLC with an eluant consisting of Skelly B--ethyl acetate (4:1). No change was noted after 3 days.
4. Stability of 9-Xanthenylmethyl Phenylacetate in Trifluoroacetic Acid: To a solution of 21.4 mg of 9-XM phenylacetate in 0.2 mL of deuterated chloroform was added 0.2 mL (40 eq.) of trifluoroacetic acid. The mixture was transferred to an NMR tube and let stand at room temperature. The reaction was monitored by NMR (Varian A-60A, 60 MHz) spectroscopy and TLC analysis with an eluant consisting of Skelly B--ether (2:1). No change was noted after 3 days.
1. Stability of 9,10-Dihydro-9-anthracenylmethyl p-Chlorocarbanilate in Trifluoroacetic Acid: To a solution of 23.61 mg of DHAmoc-PCA in 0.2 mL of deuterated chloroform was added 0.2 mL (40 eq.) of trifluoroacetic acid. The mixture was transferred to an NMR tube and allowed to stand at room temperature. The reaction was monitored by NMR spectroscopy (Varian A-60A, 60 MHz) and TLC with an eluant consisting of Skelly B--EtOAc (3:1). No change was noted after 4 days.

[9] = Base deblocking and stability of 9-xanthenylmethyl and 9,10-dihydro-9-anthracenylmethyl derivatives; conditions: room temperature
Method: 1. Deblocking of Xmoc-PCA in 1,5,9-Triazabicyclo[4,4,0]dec-5-ene Solution: To a solution of 7.90 mg (0.0216 mmol) of Xmoc-PCA in 0.6 mL of pyridine was added 0.15 g (1.078 mmol 50 eq.) of 1,5,9-triazabicyclo[4,4,0]dec-5-ene (TBD). The mixture was stirred at room temperature and monitored by TLC with an eluant consisting of Skelly B--EtOAc (3:1). Complete deblocking had occurred after 25 minutes.
2. Base Deblocking of 9-Xanthenylmethyl Phenylacetate: a. In Piperdine Solution: To a solution of 13.39 mg of 9-XM-phenylacetate in 1.6 mL of DMF was added 0.4 mL (100 eq.) of piperidine. The mixture was stirred at room temperature. […] In DBU Solution: To a solution of 6.36 mg of 9-XM-phenylacetate in 0.9 mL of DMF was added 0.3 mL of 1,8-diazabicyclo[5,4,0]-undec-7-ene (DBU) (100 eq.). The mixture was stirred at room temperature. […] In TBD Solution: To a solution of 7.91 mg of 9-XM-phenylacetate in 0.3 mL of pyridine was added 100 mg (30 eq.) of 1,5,9-triazabicyclo[4,4,0]dec-5-ene. The mixture was stirred at room temperature.
1. General Procedure for Studying the Stabilities of DHAmoc-PCA, Xmoc-PCA, and DC-Xmoc-PCA in Piperidine Solution To a solution of urethane (0.0294 mmol) in 1.2 mL of DMF was added 0.3 mL (2.94 mmol, 100 eq.) of piperidine. The mixture was stirred at room temperature and monitored by TLC with an eluant consisting of Skelly B--EtOAc (3:1). Evidence for initiation of the deblocking required 2 minutes for DC-Xmoc-PCA, 3.5 hours for Xmoc-PCA, and 7 hours for DHAmoc-PCA.
2. General Procedure for Studying the Deblocking of Xmoc-PCA and DHAmoc-PCA in DBU Solution: To a solution of urethane (0.0324 mmol) in 0.5 mL of DMF was added 0.5 mL (3.24 mmol, 100 eq.) of 1,8-diazabicyclo[5,4,0]undec-7-ene. The mixture was stirred at room temperature and monitored by TLC with the eluant consisting of Skelly B--EtOAc (3:1). The time needed to complete the deblocking was 3.5 hours for Xmoc-PCA, and 6 hours for DHAmoc-PCA.

[10] = chloroform, room temperature, 24 hours
[11] = CHCl3, room temperature, two days

O=C(Nc1ccccc1)OC(C1c2ccccc2-c2ccccc21)C1c2ccccc2-c2ccccc21 [α-F-Fmoc-aniline, Bis(9-fluorenyl)methyl Carbanilate]
recovered urethane [1, 10]: 98.3%
stability in trifluoroacetic acid (TLC) [1, 10]: No change
time for total decomposition of the urethane [2]: ≤ 10 min

C[Si](C)(C)c1ccc2c(c1)C(COC(=O)Nc1ccc(Cl)cc1)c1cc([Si](C)(C)C)ccc1-2 [BTS-Fmoc-PCA, 2,7-Bis(trimethylsilyl)-9-fluorenylmethyl p-Chlorocarbanilate]
recovered urethane [3]: 95.35%
stability in acetic acid (TLC) [3]: no change
product of protolysis in trifluoroacetic acid [4]: 9-fluorenylmethyl p-chlorocarbanilate
Time for Complete Deblocking ([5]; ethanolamine 50 eq.): 90 min
Time for Complete Scavenging of Dibenzofulvene Analogs ([5]; morpholine 50 eq.): 3.5 hr
Time for Complete Deblocking ([5]; morpholine 50 eq., significant aminodibenzofulvene type adduct formed): 190 min
Time for Complete Scavenging of Dibenzofulvene Analogs ([5]; piperidine 50 eq.): 40 min
Time for Complete Deblocking ([5]; piperidine 50 eq., significant aminodibenzofulvene type adduct formed): < 3 min
Time for Complete Deblocking ([5]; t-butylamine 50 eq.): 270 min

N[C@@H](CCCCNC(=O)OCC1c2ccccc2Oc2ccccc21)C(=O)O [H-Lys(Xmoc)-OH, N^ε -(9-Xanthenylmethoxycarbonyl)-L-lysine]
time after which no starting material was left (HPLC) [6]: ≤ 4.5 h

O=C(Nc1ccccc1)OCC1(CC2c3ccccc3-c3ccccc32)c2ccccc2-c2ccccc21 [FM-Fmoc-aniline, 9-(9'-Fluorenylmethyl)-9-fluorenylmethyl Carbanilate]
recovered urethane [1, 11]: 97.1%
stability in trifluoroacetic acid (TLC) [1, 11]: No change
recovered urethane [7]: 99.4%

O=C(Cc1ccccc1)OCC1c2ccccc2Oc2ccccc21 [9-XM-phenylacetate, 9-Xanthenylmethyl Phenylacetate]
stability in trifluoroacetic acid (NMR, TLC) [8]: No change
Time for Complete Deblocking ([9]; DBU 100 eq., DMF): ≤ 90 min
Time for Complete Deblocking ([9]; TBD 30 eq., pyridine): ≤ 27 min
stability in piperidine solution (TLC) ([9]; piperidine 100 eq., DMF, 2 days): no change
